Assay: xn = mol fraction of the nth substance listed
Conditions: 101 kPa

With `CCCC[n+]1ccn(C)c1.F[B-](F)(F)F` + CCCC[n+]1ccn(C)c1.F[P-](F)(F)(F)(F)F the viscosity (298.15 K, x2 = 0) was 107.2 mPa·s, the viscosity (302.15 K, x2 = 0) was 87.5 mPa·s and the viscosity (304.15 K, x2 = 0) was 79.6 mPa·s. It also gave a viscosity (305.15 K, x2 = 0) of 75.9 mPa·s, a viscosity (307.15 K, x2 = 0) of 69.1 mPa·s and a viscosity (308.15 K, x2 = 0) of 66.1 mPa·s.
For `CCCCCC[n+]1ccn(C)c1.F[B-](F)(F)F` + CC[n+]1ccn(C)c1.F[B-](F)(F)F, the viscosity (298.15 K, x2 = 0.0545) was 184.1 mPa·s, the viscosity (298.15 K, x2 = 0.1196) was 171.7 mPa·s and the viscosity (298.15 K, x2 = 0.1803) was 158.1 mPa·s. For the same molecule, the viscosity (298.15 K, x2 = 0.3145) was 128.3 mPa·s, the viscosity (298.15 K, x2 = 0.446) was 104.5 mPa·s and the viscosity (298.15 K, x2 = 0.4938) was 96 mPa·s. For the same molecule, the viscosity (298.15 K, x2 = 0.5526) was 86.7 mPa·s, the viscosity (298.15 K, x2 = 0.6006) was 78.3 mPa·s and the viscosity (298.15 K, x2 = 0.7059) was 64.3 mPa·s. The viscosity (298.15 K, x2 = 0.8516) was 48.1 mPa·s, the viscosity (298.15 K, x2 = 0.9022) was 43.3 mPa·s and the viscosity (299.15 K, x2 = 0.0545) was 173.9 mPa·s. It also gave a viscosity (299.15 K, x2 = 0.4061) of 106 mPa·s, a viscosity (299.15 K, x2 = 0.446) of 99.3 mPa·s and a viscosity (299.15 K, x2 = 0.5526) of 82.5 mPa·s. For the same molecule, the viscosity (299.15 K, x2 = 0.7059) was 61.64 mPa·s, the viscosity (299.15 K, x2 = 0.8516) was 46.22 mPa·s and the viscosity (301.15 K, x2 = 0) was 177.2 mPa·s. The viscosity (301.15 K, x2 = 0.1196) was 145.5 mPa·s, the viscosity (301.15 K, x2 = 0.3145) was 109.7 mPa·s and the viscosity (301.15 K, x2 = 0.4061) was 95.9 mPa·s. The viscosity (301.15 K, x2 = 0.446) was 89.9 mPa·s, the viscosity (301.15 K, x2 = 0.4938) was 82.7 mPa·s and the viscosity (301.15 K, x2 = 0.5526) was 75 mPa·s. The viscosity (301.15 K, x2 = 0.6006) was 68.1 mPa·s, the viscosity (301.15 K, x2 = 0.7059) was 56.52 mPa·s and the viscosity (301.15 K, x2 = 0.793) was 47.42 mPa·s. For the same molecule, the viscosity (302.15 K, x2 = 0.0545) was 147.1 mPa·s, the viscosity (302.15 K, x2 = 0.1803) was 125.9 mPa·s and the viscosity (302.15 K, x2 = 0.3145) was 104.1 mPa·s. For the same molecule, the viscosity (302.15 K, x2 = 0.4061) was 91.3 mPa·s, the viscosity (302.15 K, x2 = 0.446) was 85.6 mPa·s and the viscosity (302.15 K, x2 = 0.4938) was 78.6 mPa·s. For the same molecule, the viscosity (302.15 K, x2 = 0.5526) was 71.4 mPa·s, the viscosity (302.15 K, x2 = 0.6006) was 64.9 mPa·s and the viscosity (302.15 K, x2 = 0.7059) was 54.22 mPa·s. It also gave a viscosity (302.15 K, x2 = 0.793) of 45.56 mPa·s, a viscosity (303.15 K, x2 = 0) of 160.9 mPa·s and a viscosity (303.15 K, x2 = 0.0545) of 139.3 mPa·s. The viscosity (303.15 K, x2 = 0.1196) was 130.2 mPa·s, the viscosity (303.15 K, x2 = 0.3145) was 99.1 mPa·s and the viscosity (303.15 K, x2 = 0.4061) was 87 mPa·s. For the same molecule, the viscosity (303.15 K, x2 = 0.446) was 81.6 mPa·s, the viscosity (303.15 K, x2 = 0.4938) was 75.1 mPa·s and the viscosity (303.15 K, x2 = 0.8516) was 39.58 mPa·s. For the same molecule, the viscosity (303.15 K, x2 = 0.9022) was 35.77 mPa·s, the viscosity (304.15 K, x2 = 0) was 148.4 mPa·s and the viscosity (304.15 K, x2 = 0.0545) was 132.4 mPa·s. It also gave a viscosity (304.15 K, x2 = 0.1196) of 123.7 mPa·s, a viscosity (304.15 K, x2 = 0.1803) of 113.4 mPa·s and a viscosity (304.15 K, x2 = 0.3145) of 94.2 mPa·s. It also gave a viscosity (304.15 K, x2 = 0.4061) of 82.8 mPa·s, a viscosity (304.15 K, x2 = 0.446) of 77.7 mPa·s and a viscosity (304.15 K, x2 = 0.4938) of 71.7 mPa·s. For the same molecule, the viscosity (304.15 K, x2 = 0.5526) was 65.3 mPa·s, the viscosity (304.15 K, x2 = 0.6006) was 59.61 mPa·s and the viscosity (304.15 K, x2 = 0.793) was 42.09 mPa·s. For the same molecule, the viscosity (304.15 K, x2 = 0.8516) was 38.13 mPa·s, the viscosity (305.15 K, x2 = 0) was 141.2 mPa·s and the viscosity (305.15 K, x2 = 0.0545) was 125.1 mPa·s. The viscosity (305.15 K, x2 = 0.1196) was 117.7 mPa·s, the viscosity (305.15 K, x2 = 0.1803) was 108 mPa·s and the viscosity (305.15 K, x2 = 0.4061) was 78.9 mPa·s. For the same molecule, the viscosity (305.15 K, x2 = 0.446) was 74.3 mPa·s, the viscosity (305.15 K, x2 = 0.5526) was 62.36 mPa·s and the viscosity (305.15 K, x2 = 0.7059) was 47.93 mPa·s. For the same molecule, the viscosity (305.15 K, x2 = 0.8516) was 36.71 mPa·s, the viscosity (307.15 K, x2 = 0) was 127.5 mPa·s and the viscosity (307.15 K, x2 = 0.0545) was 113.1 mPa·s. The viscosity (307.15 K, x2 = 0.1196) was 106 mPa·s, the viscosity (307.15 K, x2 = 0.1803) was 97.5 mPa·s and the viscosity (307.15 K, x2 = 0.3145) was 81.4 mPa·s. It also gave a viscosity (307.15 K, x2 = 0.4061) of 71.9 mPa·s, a viscosity (307.15 K, x2 = 0.446) of 67.8 mPa·s and a viscosity (307.15 K, x2 = 0.4938) of 62.6 mPa·s. For the same molecule, the viscosity (307.15 K, x2 = 0.5526) was 57.17 mPa·s, the viscosity (307.15 K, x2 = 0.6006) was 52.51 mPa·s and the viscosity (307.15 K, x2 = 0.7059) was 44.34 mPa·s. The viscosity (307.15 K, x2 = 0.8516) was 34.2 mPa·s, the viscosity (308.15 K, x2 = 0) was 120.7 mPa·s and the viscosity (308.15 K, x2 = 0.0545) was 107.3 mPa·s. For the same molecule, the viscosity (308.15 K, x2 = 0.1196) was 100.8 mPa·s, the viscosity (308.15 K, x2 = 0.4061) was 68.8 mPa·s and the viscosity (308.15 K, x2 = 0.446) was 64.8 mPa·s. The viscosity (308.15 K, x2 = 0.5526) was 54.84 mPa·s, the viscosity (308.15 K, x2 = 0.7059) was 42.66 mPa·s and the viscosity (308.15 K, x2 = 0.8516) was 33 mPa·s.
